The values that follow come from US10307587B2, “Methods and devices for treating the skin” (VOMARIS INNOVATIONS, INC., priority 2014, dated 2019).

The subject of one test is Human keratinocytes. The test can be described thus: in vitro scratch assay (cell migration). Format: cell-based. The conditions noted are these: for increased keratinocyte migration observed with LLEC, under N-acetyl cysteine: 5 mM, pretreated 1 h before scratch assay. From the text: The in vitro scratch assay is an easy, low-cost and well-developed method to measure cell migration in vitro. The basic steps involve creating a “scratch” in a cell monolayer, capturing images at the beginning and at regular intervals during cell migration to close the scratch, and comparing the images to quantify the migration rate of the cells. Compared to other methods, the in vitro scratch assay is particularly suitable for studies on the effects of cell-matrix and cell-cell interactions on cell migration, mimic cell migration during wound healing in vivo and are compatible with imaging of live cells during migration to monitor intracellular events if desired. In addition to monitoring migration of homogenous cell populations, this method has also been adopted to measure migration of individual cells in the leading edge of the scratch. Not taking into account the time for transfection of cells, in vitro scratch assay per se usually takes from several hours to overnight.
Human keratinocytes were plated under plated under placebo or a LLEC system (labeled “PROCELLERA®”). Cells were also plated under silver-only or zinc-only dressings. After 24 hours, the scratch assay was performed.
Measurement of the potential difference between adjacent zinc and silver dots when the LLEC is in contact with de-ionized water yielded a value of about 0.2 Volts. Though the potential difference between zinc and silver dots can be measured, non-intrusive measurement of the electric field arising from contact between the LLEC and liquid medium was difficult. Keratinocyte migration was accelerated by exposure to an Ag/Zn LLEC.
Scratch assay—A cell migration assay was performed using culture inserts (IBIDI®, Verona, Wis.) according to the manufacturers instructions. Cell migration was measured using time-lapse phase-contrast microscopy following withdrawal of the insert. Images were analyzed using the AxioVision Rel 4.8 software.
N-Acetyl Cysteine Treatment—Cells were pretreated with 5 mM of the thiol antioxidant N-acetylcysteine (Sigma) for 1 h before start of the scratch assay. […]

Test [1] has as its system HUVEC cells. The test can be described thus: EF-induced elongation of endothelial cells (long:short axis ratio). Type of test: cell-based, human. The conditions noted are these: drug 50 μM. On the procedure:
HUVEC cells were seeded in a trough formed by two parallel (1 cm apart) strips of glass coverslip (No. 1, length of 22 mm) fixed to the base of the dish with silicone grease. Scratch lines were made perpendicular to the long axis of the chamber with a fine sterile needle and used as reference marks for directed cell migration. Cells were incubated for 24-48 hours (37° C., 5% CO2) before a roof coverslip was applied and sealed with silicone grease. The final dimensions of the chamber, through which current was passed, were 22×10×0.2 mm. […] Field strengths were measured directly at the beginning of, the end of and during each experiment. […]
A series of images was taken with an image analyser immediately before EF exposure and at 4, 8 and 24 hours of EF exposure. Cell orientation was quantified as an orientation index (Oi), which is defined as Oi=cos 2(α), where α is the angle formed by the long axis of a cell with a line drawn perpendicular to the field lines. […] The significance of this two-dimensional orientation distribution against randomness was calculated using Rayleigh's distribution. A long:short axis ratio was calculated for assessment of elongation.
HUVEC cells elongated dramatically in an EF. […] We quantified the elongation of the cells using a long:short axis ratio. […]

Test [2] has as its system HUVEC cells. The test can be described thus: EF-induced reorientation of endothelial cells (orientation index Oi). Format: cell-based, human. The conditions noted are these: for orientation response / reorientation of cells in an EF: drug 50 μM, 1 hour before and during EF exposure.
Method: HUVEC cells were seeded in a trough formed by two parallel (1 cm apart) strips of glass coverslip (No. 1, length of 22 mm) fixed to the base of the dish with silicone grease. Scratch lines were made perpendicular to the long axis of the chamber with a fine sterile needle and used as reference marks for directed cell migration. Cells were incubated for 24-48 hours (37° C., 5% CO2) before a roof coverslip was applied and sealed with silicone grease. The final dimensions of the chamber, through which current was passed, were 22×10×0.2 mm. Agar-salt bridges not less than 15 cm long were used to connect silver/silver-chloride electrodes in beakers of Steinberg's solution (58 mM NaCl, 0.67 mM KCl, 0.44 mM Ca(NO3)2, 1.3 mM MgSO4, 4.6 mM Trizma base, pH 7.8-8.0), to pools of excess culture medium at either side of the chamber. Field strengths were measured directly at the beginning of, the end of and during each experiment. No fluctuations in field strength were observed. […] (50 μM), the Rho kinase inhibitor Y27632 (50 μM), both Akt and Rho kinase inhibitors (10 μM each) or latrunculin (50 nM) for 1 hour before EF stimulation. The same concentration of drug was present during EF exposure in a CO2 incubator.
A series of images was taken with an image analyser immediately before EF exposure and at 4, 8 and 24 hours of EF exposure. Cell orientation was quantified as an orientation index (Oi), which is defined as Oi=cos 2(α), where α is the angle formed by the long axis of a cell with a line drawn perpendicular to the field lines. A cell with its long axis parallel to the vector of the EF will have an Oi of −1, and a cell with its long axis exactly perpendicular to the EF vector will have an Oi of +1. […] The significance of this two-dimensional orientation distribution against randomness was calculated using Rayleigh's distribution. A long:short axis ratio was calculated for assessment of elongation.
Cell alignment was quantified using an orientation index Oi=cos 2(α), where α is the angle formed between the long axis of a cell and a line drawn perpendicular to the field lines. […]

Turning to `CC(=O)N[C@@H](CS)C(=O)O` [N-Acetyl Cysteine, N-acetylcysteine], the “increased keratinocyte migration observed with LLEC, under N-acetyl cysteine” value in the test with Human keratinocytes is recorded as “failed to reproduce the increased migration”; with Human keratinocytes (listed as N-acetyl cysteine) it was “prevented”.

Consider `C[C@@H](N)[C@H]1CC[C@H](C(=O)Nc2ccncc2)CC1` [Y27632], for which the “long:short axis ratio in EF-treated cells” value with HUVEC cells [1] is listed as “significantly decreased”.

With `COc1cc2ncnc(Nc3ccc(Cl)cc3F)c2cc1OC` [VEGFR inhibitor, 4-[(4′-chloro-2′-fluoro)phenylamino]-6,7-dimethoxyquinazoline], in the test on HUVEC cells [2], the “orientation response / reorientation of cells in an EF” value is given as “completely abolished”.

Turning to `N#CC(=C(/N)Sc1ccccc1N)/C(C#N)=C(\N)Sc1ccccc1N` [U0126], in the test on HUVEC cells [2], the Oi was found to be 0.33±0.03.

`COc1cc([C@@H]2c3cc4c(cc3[C@H](O)[C@H]3COC(=O)[C@@H]23)OCO4)cc(OC)c1OC` [IGF-1R inhibitor, picropodophyllin]: in the test with Human keratinocytes (50 nM picropodophyllin just prior to scratch assay), the “increased keratinocyte migration observed with LLEC, under IGF-1R inhibitor” value is listed as “attenuated the increased keratinocyte migration”.

In the case of “1-L-6-hydroxymethyl-chiro-inositol 2-[(R)-2-O-methyl-3-O-octadecylcarbonate] [Akt inhibitor]”, in the test on HUVEC cells [1], the “long:short axis ratio in EF-treated cells” value is “significantly decreased”. Besides, in the test on HUVEC cells [2], the “orientation response / reorientation of cells in an EF” value was “significantly decreased”.
